These results are taken from patent US4239780A, “Phospholipase A2 inhibition” (The Upjohn Company, priority 1979, dated 1980).

pIC50: −log10 of the molar value. Where a name gives a salt, the structure may show the parent alone.

Assay [1] addresses T1, HOG PANCREAS PHOSPHOLIPASE A2 (Sus scrofa, UniProt P00592).
T1 construct: from tissue; host or cells: hog pancreas
As to the kind of experiment: coupled phospholipase A2 / soybean lipoxygenase oxygen consumption assay, hog pancreas enzyme. It counts as biochemical. Conditions: estimated I50 calculated from a partial inhibition value, pH 8.5, 37° C.

The target of assay [2] is T2, HUMAN PLATELET PHOSPHOLIPASE A2 (Homo sapiens, UniProt P47712).
T2 construct: Human blood was drawn from an antecubital vein into 3.8% sodium citrate; endogenous in cells; host or cells: human platelets in citrated plasma (PRP)
T2 sequence (P47712 1-749): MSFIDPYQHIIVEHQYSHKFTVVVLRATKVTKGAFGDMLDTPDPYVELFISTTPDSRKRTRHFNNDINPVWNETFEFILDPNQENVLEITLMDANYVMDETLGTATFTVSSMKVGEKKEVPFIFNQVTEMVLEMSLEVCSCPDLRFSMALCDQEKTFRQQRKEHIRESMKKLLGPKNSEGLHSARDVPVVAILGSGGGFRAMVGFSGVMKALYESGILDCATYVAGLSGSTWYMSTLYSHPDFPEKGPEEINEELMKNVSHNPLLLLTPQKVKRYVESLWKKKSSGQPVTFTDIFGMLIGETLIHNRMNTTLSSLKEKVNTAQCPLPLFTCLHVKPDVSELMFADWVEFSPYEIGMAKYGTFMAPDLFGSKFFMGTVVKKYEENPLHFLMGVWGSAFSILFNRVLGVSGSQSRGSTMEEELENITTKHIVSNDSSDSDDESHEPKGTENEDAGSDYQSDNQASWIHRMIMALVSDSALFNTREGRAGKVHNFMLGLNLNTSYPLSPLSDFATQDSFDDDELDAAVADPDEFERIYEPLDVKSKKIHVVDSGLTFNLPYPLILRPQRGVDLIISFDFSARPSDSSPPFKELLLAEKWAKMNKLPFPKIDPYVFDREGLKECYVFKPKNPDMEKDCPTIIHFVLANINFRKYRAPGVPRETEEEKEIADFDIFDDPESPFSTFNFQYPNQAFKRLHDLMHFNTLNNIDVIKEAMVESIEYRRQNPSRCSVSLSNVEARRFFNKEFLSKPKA
As to the kind of experiment: inhibition of collagen-induced aggregation of human platelets. It counts as cell-based. Conditions: human platelet rich plasma, read-out: I50 collagen (converted). The procedure: The compounds of the present invention were tested for their ability to inhibit collagen-induced aggregation of platelets at 100 μg. per ml. or less. The compounds that were active against collagen-induced aggregation were tested at the I50 dose against arachidonic acid-induced aggregation. Compounds that inhibited collagen-induced aggregation, but not arachidonic acid-induced aggregation, were reported as active phospholipase A2 inhibitors.
The test was run as follows. Human blood was drawn from an antecubital vein into 3.8% sodium citrate with the final citrate concentration being 0.38%. The blood was transferred to plastic centrifuge tubes and centrifuged at 200×g for 10 min. This yielded […] (PRP). This PRP was allowed to stand for 30 min. for testing at which point it was tested against 400 μg. per ml. of arachidonic acid. […] If the platelets aggregated to arachidonic acid, a dose of collagen that gave a substantial irreversible aggregation (approximately 60-80% transmission) was established. It was then attempted to block the response of collagen with 10 μg. per ml. of indomethacin. […] The ID50 for all unknown compounds was then established. Most of the compounds were tested at rather high concentrations and it was often necessary to place the compound in ethanol into the aggregation cuvet and evaporate the ethanol before testing.
Those that were reported as active were tested at the ID50 dose against 400 μg per ml. of arachidonic acid. […] The compounds are shown to inhibit phospholipase A2 from humans at low dosages.

The next assay deals with UV induced erythema. Nature of the assay: UV induced erythema on the skin of guinea pigs. It counts as in vivo, guinea pig. Conditions: for erythema score, 1 hour / erythema score, 2 hours / erythema score, 3 hours / erythema score, 4 hours / erythema score, 24 hours: aggregate score for 3 animals; for erythema score, (After 4 hours) Total Points / erythema score, (After 24 hours) Total Points: aggregate for 3 animals. The method, then:
Some of the compounds of this invention were tested in vivo for their ability to inhibit the effects of UV induced erythema on the skin of guinea pigs. This is an example of an inflammatory process fulfilling the four pathological requirements of "rubor, calor, dolor, and tumor" i.e., reddening, heat, pain, and edematious swelling in the skin. Administration of the compounds of this invention to guinea pigs whose skin was subsequently exposed to ultraviolet light markedly retarded and in some cases eliminated altogether this inflammatory process. Administration of the compounds of this invention was performed both interparenterally and subcutaneously with equivalent results, thereby eliminating any possiblity of reduction in erthyma due to the so called "counter irritant" effect on the serosal soft surface of the gut.
The test was carried out as follows: Guinea pigs of the Hartley strain ranging in weight from 250 to 750 gm. were clipped with coarse and fine clippers to remove as much hair as possible from the back or abdomen. They were then treated with a commercial depilatory for six to seven min. after which they were washed with warm water. The animals were then injected I.P. or subcutaneously with solutions or suspensions of the test compounds made up at 0.02 molar concentrations. The dose was 0.3 ml. per 100 gm. of body weight. A control (untreated) group was also maintained. The animals were then held for 30 min. before being exposed as rapidly as possible to ultra-violet light using a Kromayer lamp for 30 sec. A scoring system was developed to quantitate the erythema. The scoring was from 0 to 5 and is described as follows:
0=no apparent reddening of the skin
0.5=some slight reddening, without a definite border
1.0=a discrete pink circle with a definite border
2.0=a discrete circle of redness with a definite border more intense than 1.0
3.0=same circle with still greater intensity
4.0=same circle with a near maximal response but without any raising of the erythematous spot above the level of the surrounding skin
5.0=a raised edematous circle with the redness at maximal intensity
The animals were scored at hourly intervals for the first four hours. The erythema reached a maximum at this time in the control animals. The major difference between results at 4 hr. and those at 24 is the developement of edema and this occurred in some of the animals treated with phospholipase inhibitors without erythema being present. The results of this test are shown in tabular form in Tables VI and VII. The aggregate scores of the animals treated with the designated compounds are recorded at hourly intervals and compared with the control (untreated) scores. As shown by the tables, the method of this invention markedly retarded UV-induced erythema.

In assay [3] the target is SNAKE VENOM PHOSPHOLIPASE A2. As to the kind of experiment: coupled phospholipase A2 / soybean lipoxygenase oxygen consumption assay, snake venom enzyme. Type of assay: biochemical. Conditions: estimated I50 calculated from a partial inhibition value, pH 8.5, 37° C.
The mark [4] stands for this setting: intraperitoneal, 23-25.2 mg/kg given 30 min. before UV, control 12.
Setting [5] is: intraperitoneal, 23-25.2 mg/kg given 30 min. before UV, control 18.
Where [6] appears, read: intraperitoneal, 23-25.2 mg/kg given 30 min. before UV, control 24.
[7] abbreviates: intraperitoneal, 23-25.2 mg/kg given 30 min. before UV, control 30.
[8] abbreviates: intraperitoneal, 23-25.2 mg/kg given 30 min. before UV, control 50.
[9] abbreviates: intraperitoneal, 23-25.2 mg/kg, control 78.
Setting [10] is: intraperitoneal, 23-25.2 mg/kg, control 128.
Where [11] appears, read: subcutaneous, 60.9-66.1 mg/kg given 30 min. before UV, control 17.
Where [12] appears, read: subcutaneous, 60.9-66.1 mg/kg given 30 min. before UV, control 23.
[13] abbreviates: subcutaneous, 60.9-66.1 mg/kg given 30 min. before UV, control 29.
Setting [14] is: subcutaneous, 60.9-66.1 mg/kg given 30 min. before UV, control 34.
The mark [15] stands for this setting: subcutaneous, 60.9-66.1 mg/kg given 30 min. before UV, control 56.
Setting [16] is: subcutaneous, 60.9-66.1 mg/kg, control 103.
Setting [17] is: subcutaneous, 60.9-66.1 mg/kg, control 158.

T1 sequence (P00592 23-146): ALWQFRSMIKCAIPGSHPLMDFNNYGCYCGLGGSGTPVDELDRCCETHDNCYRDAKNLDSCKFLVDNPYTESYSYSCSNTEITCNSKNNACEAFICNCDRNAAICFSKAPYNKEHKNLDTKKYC

For the compound `O=C(CCCN[C@H]1CC[C@H](c2ccc(C(F)(F)F)cc2)CC1)c1ccc(F)cc1` [A, Butyrophenone, 4'-fluoro-4-[[4-(α,α,α-trifluoro-p-tolyl)-cyclohexyl]amino]-, trans-,], in assay [1], the negative-log IC50 (pIC50) (as a rule, the negative decadic logarithm of the IC50, by convention in mol/L) was 5.29.
With `CO[C@]1(c2ccccc2C)CC[C@H](NCCCC(=O)c2ccc(F)cc2)CC1` [B, Butyrophenone, 4'-fluoro-4-[(c-4-methoxy-4-o-tolylcyclohexyl)-amino]-, hydrochloride, hemihydrate], the IC50 in assay [2] is 183 µM. In assay [1], the pIC50 is 4.97. Moreover, the figures for the “erythema score, 1 hour” value with UV induced erythema (setting [4]) and with UV induced erythema (setting [11]) were 3 and 8, respectively. In addition, the “erythema score, 2 hours” value in the assay on UV induced erythema (setting [5]) amounted to 5; with UV induced erythema (setting [12]), 7. For the same compound, the entries for the “erythema score, 3 hours” value in the assay with UV induced erythema (setting [6]) and in the assay on UV induced erythema (setting [13]) were 5 and 6, respectively. The “erythema score, 4 hours” value in the assay with UV induced erythema (setting [7]) is 2; in the assay on UV induced erythema (setting [14]) it was 13. The entries for the “erythema score, 24 hours” value in the assay with UV induced erythema (setting [8]) and in the assay on UV induced erythema (setting [15]) were 36 and 33, respectively. Besides, the results for the “erythema score, (After 4 hours) Total Points” value in the assay with UV induced erythema (setting [9]) and with UV induced erythema (setting [16]) were 15 and 34, respectively. The figures for the “erythema score, (After 24 hours) Total Points” value in the assay on UV induced erythema (setting [10]) and in the assay with UV induced erythema (setting [17]) were 51 and 66, respectively.
For `CO[C@]1(c2ccc(C)cc2)CC[C@H](NCCCC(=O)c2ccc(F)cc2)CC1` [D, Butyrophenone, 4'-fluoro-4-[(c-4-methoxy-4-p-tolyl-r-1-cyclohexyl)amino]-, hydrochloride], the IC50 in assay [2] was 261 µM. Moreover, the pIC50 in assay [1] is 4.83.
`O=C(CCCN[C@H]1CC[C@](CO)(c2ccccc2)CC1)c1ccc(Cl)cc1` [E, Butyrophenone, 4'-chloro-4-[[c-4-(hydroxy-methyl)-4-phenyl-r-1-yclohexyl]amino]-, hydrochloride]: in assay [1], the pIC50 is 4.53.
`CN(CCCC(=O)c1ccc(F)cc1)[C@H]1CC[C@](CO)(c2ccccc2)CC1` [F, Butyrophenone, 4'-fluoro-4-[[c-4-(hydroxy-methyl)-t-4-phenyl-r- -cyclohexyl]methyl-amino]-]: the IC50 in assay [2] is 65.2 µM. In assay [1], the pIC50 is 4.36. For the same compound, the “erythema score, 1 hour” value with UV induced erythema (setting [4]) was 14. In the assay on UV induced erythema (setting [5]), the “erythema score, 2 hours” value was determined as 12. Moreover, in the assay with UV induced erythema (setting [6]), the “erythema score, 3 hours” value amounted to 12. For the same compound, the “erythema score, 4 hours” value in the assay on UV induced erythema (setting [7]) was 17. For the same compound, the “erythema score, 24 hours” value in the assay on UV induced erythema (setting [8]) was determined as 60. The “erythema score, (After 4 hours) Total Points” value with UV induced erythema (setting [9]) turned out to be 55. Besides, the “erythema score, (After 24 hours) Total Points” value in the assay on UV induced erythema (setting [10]) was 105.
As to `O=C(CCCN[C@H]1CC[C@](CO)(c2ccc(Cl)cc2)CC1)c1ccc(F)cc1` [G, Butyrophenone, 4-[[t-4-(p-chlorophenyl)-c-4-(hydroxymethyl)-r-1-cyclo-hexyl]amino]-4'fluoro-, hydrochloride], the IC50 in assay [2] was 74.3 µM. Further, the pIC50 in assay [1] was 4.26. In the assay on UV induced erythema (setting [11]), the “erythema score, 1 hour” value is listed as 12. In addition, in the assay on UV induced erythema (setting [12]), the “erythema score, 2 hours” value came out at 13. For the same compound, the “erythema score, 3 hours” value in the assay with UV induced erythema (setting [13]) came out at 9. The “erythema score, 4 hours” value in the assay on UV induced erythema (setting [14]) was determined as 13. In addition, in the assay with UV induced erythema (setting [15]), the “erythema score, 24 hours” value came out at 52. The “erythema score, (After 4 hours) Total Points” value in the assay with UV induced erythema (setting [16]) is given as 46. The “erythema score, (After 24 hours) Total Points” value in the assay with UV induced erythema (setting [17]) was 98.
Turning to `O=C(CCCNC1CCC(c2ccc(Cl)cc2)CC1)c1ccc(F)cc1` (stereo not drawn) [H, Butyrophenone, 4[[4-(p-chlorophenyl)cyclohexyl]-amino]-4'-fluoro-, hydro-chloride], the “erythema score, 1 hour” value in the assay on UV induced erythema (setting [11]) was 6. Moreover, the “erythema score, 2 hours” value in the assay on UV induced erythema (setting [12]) is listed as 6. Also, the “erythema score, 3 hours” value in the assay with UV induced erythema (setting [13]) worked out at 7. Moreover, in the assay with UV induced erythema (setting [14]), the “erythema score, 4 hours” value is recorded as 9. Further, the “erythema score, 24 hours” value with UV induced erythema (setting [15]) worked out at 52. The “erythema score, (After 4 hours) Total Points” value in the assay on UV induced erythema (setting [16]) was found to be 28. The “erythema score, (After 24 hours) Total Points” value in the assay with UV induced erythema (setting [17]) is listed as 78.
With `O=C(CCCN[C@H]1CC[C@](CO)(c2ccccc2)CC1)c1ccc(F)cc1` [I, Butyropehnone, 4'-fluoro-4-[[4-(hydroxymethyl)-4-phenylcyclohexyl]amino]- cis-, hydrochloride], the negative-log IC50 (pIC50) in assay [1] is 4.61; in assay [3] it was 3.66. Besides, the “erythema score, 1 hour” value in the assay with UV induced erythema (setting [11]) is on record as 2. In addition, in the assay on UV induced erythema (setting [12]), the “erythema score, 2 hours” value worked out at 4. The “erythema score, 3 hours” value in the assay on UV induced erythema (setting [13]) was 6. The “erythema score, 4 hours” value in the assay on UV induced erythema (setting [14]) is reported as 7. The “erythema score, 24 hours” value in the assay on UV induced erythema (setting [15]) came out at 40. For the same compound, the “erythema score, (After 4 hours) Total Points” value with UV induced erythema (setting [16]) was determined as 18. The “erythema score, (After 24 hours) Total Points” value with UV induced erythema (setting [17]) stood at 58.
